Laboratory results from PMC12642047, “Marine-derived Acremonium strain prioritization using untargeted metabolomics approach for the identification of cytotoxic cyclic depsipeptides” (BMC Biotechnology, 2025).
Like-named read-outs stand apart in the source and are kept apart here. *1 amine or outer side, *2 acyl side, *3 side chain or, on linkers, in order; H or OH if unused. Where a SMILES comes first, the peptide text is derived from it. [ ]: non-standard residue; d: D form. ξ: configuration not given here. Pentanoyl(2-O,4-OH,5-Cl) = O=C(O)C(O)CC(O)CCl; NMeI = CC[CH](C)[CH](NC)C(=O)O; X1 = CC1CCN([*:1])C1C(=O)[*:2]; ξLac(3-iPr) = CC(C)CC(O)C(=O)O; NMeA = CN[CH](C)C(=O)O; βAla = NCCC(=O)O

Tests used:
A2058 (human melanoma) = assay: MTS cytotoxicity assay (CellTiter 96 AQueous One), compounds, 72 h; type: cell-based; details: A2058 cells
Experimental: (§1) Compounds 1 − 5 were tested for their cytotoxic effects against several cancer cell lines, including MOLM-13 (acute myeloid leukemia), MV-4-11 (biphenotypic B myelomonocytic leukemia), THP-1 (acute monocytic leukemia), A2058 (human melanoma), MCF7 (human breast adenocarcinoma), and non-cancerous MRC-5 (normal lung fibroblast) using an MTS based CellTiter 96® AQueous One Solution Assay. In short, the cells were cultured in appropriate media supplemented with 10% fetal bovine serum (FBS): MOLM-13, MV-4-11 cells in RPMI medium, THP-1 cells in RPMI medium with ultra-low endotoxin FBS, MCF7 and MRC-5 in MEM Eagle medium along with other amino acid supplements, and A2058 cells in DMEM medium. After harvesting, they were seeded into 96-well plates. The cells were then treated with the test compounds at various concentrations and incubated for 72 h. Following the incubation period, an MTS assay was conducted, and the absorbance of the solution was measured using a microplate reader spectrophotometer (Tecan spark plate reader) at a wavelength of 490 nm. The half-maximum inhibitory concentration (IC50) values were calculated using the drc_3.0–1 package in R (Supplementary page S60-S61). DMSO (10%) was used as the positive control, and cell culture media as the negative control. All samples were tested in triplicate.
(§2) The results were plotted in a dose-response curve as shown in Figure S97 and the half-maximum inhibitory concentration (IC50) values were calculated using R. A 4-parameter logistic (4PL) dose-response model was applied to analyse the relationship between the concentration and the observed response (absorbance at 490 nm). […] The model was fitted to the experimental data using the drm function from the drc_3.0-1 package in R and IC50 values were determined as the concentration (μM) corresponding to 50% cell survival.

[1] = test system: MCF7 (human breast adenocarcinoma); assay: as above; type: cell-based; details: MCF7 cells
Experimental: as §1, §2

[2] = test system: MOLM-13 (acute myeloid leukemia); assay: as above; type: cell-based; details: Homo sapiens, MOLM-13 cells
Experimental: as §1, §2

[3] = test system: MRC-5 (normal lung fibroblast); assay: as above; type: cell-based; details: Homo sapiens, MRC5, MRC-5 normal lung fibroblasts
Experimental: as §1, §2

[4] = test system: MV-4-11 (biphenotypic B myelomonocytic leukemia); assay: as above; type: cell-based; details: Homo sapiens, MV4-11, MV-4-11 cells
Experimental: as §1, §2

[5] = test system: THP-1 (acute monocytic leukemia); assay: as above; type: cell-based; details: Homo sapiens, THP-1 cells
Experimental: as §1, §2

MCF7 = test system: MCF7; parameters: method as in PMID 30572686; details: read-out: IC50 MCF7 (previously reported), cited from earlier work
[6] = test system: HL-60 (acute promyelocytic leukemia); parameters: method as in PMID 30572686; details: HL-60 cells; read-out: IC50 HL-60 (previously reported); cited from earlier work
plants = details: cited from earlier work
insects = test system: insects; parameters: method as in doi:10.1021/np9601216; details: cited from earlier work
[7] = test system: PDGF-BB/PDGFR-ββ signalling; parameters: method as in PMID 27322468; details: cited from earlier work
[8] = test system: erythropoietin gene expression; parameters: method as in PMID 9514014; details: cited from earlier work

SMILES | IC50 (A2058 (human melanoma); value marked * expressed in nM) [nM] | IC50 ([1]; value marked * expressed in nM) [nM] | IC50 [2] [nM] | IC50 [3] [µM] | IC50 [4] [µM] | IC50 [5] [µM] | IC50 (MCF7; MCF7 cell line) [nM] | IC50 (MCF7; MCF7 cells) [nM] | IC50 [6] [nM] | IC50 (A2058 (human melanoma)) [nM] | IC50 [1] [nM] | Phytotoxic activity (plants) | Entomopathogenic activity (insects) | Inhibition of PDGF-BB/PDGFR-ββ signalling [7] | Erythropoietin gene expression [8]
CCC(C)C1NC(=O)C2C(C)CCN2C(=O)C(CC(O)CCl)OC(=O)CCNC(=O)C(C)N(C)C(=O)C(C(C)CC)N(C)C1=O (stereo not shown) [Compound 2, trichomide D] (cyclo([X1]I[NMeI][NMeA][βAla][Pentanoyl(2-O,4-OH,5-Cl)]); configuration not given here) | 40 | 40 | 500 | 1.2 | 0.8 | 2.1 | 79 | 79 | 107 |  |  |  |  |  | 
CCC(C)C1NC(=O)C2CCCN2C(=O)C(CC(C)C)OC(=O)CCNC(=O)C(C)N(C)C(=O)C(C(C)CC)N(C)C1=O (stereo not shown) [Compound 4, homodestruxin B] (cyclo([ξLac(3-iPr)]PI[NMeI][NMeA][βAla]); configuration not given here) |  |  | 5500 | > 40 | 14.6 | 16.2 |  |  |  | 30200 | 12300 | phytotoxic activity |  |  | 
C=CCC1OC(=O)CCNC(=O)C(C)N(C)C(=O)C(C(C)CC)N(C)C(=O)C(C(C)CC)NC(=O)C2C(C)CCN2C1=O (stereo not shown) [Compound 3, destruxin-A5] |  |  | 3000 | 15.2 | 7.2 | 8.7 |  |  |  | 6600 | 5200 |  | entomopathogenic activity | selectively inhibit | 
CCC(C)C1NC(=O)C2C(C)CCN2C(=O)C(CC(C)C)OC(=O)CCNC(=O)C(C)N(C)C(=O)C(C(C)CC)N(C)C1=O (stereo not shown) [Compound 5, homodestcardin] (cyclo([X1]I[NMeI][NMeA][βAla][ξLac(3-iPr)]); configuration not given here) |  |  | 3600 | 5.6 | 12.5 | 16 |  |  |  | 2600 | 2100 |  |  |  | 
CCC(C)C1NC(=O)C2CCCN2C(=O)C(CC(O)CCl)OC(=O)CCNC(=O)C(C)N(C)C(=O)C(C(C)CC)N(C)C1=O (stereo not shown) [Compound 1, destruxin-A4 chlorohydrin] (cyclo([Pentanoyl(2-O,4-OH,5-Cl)]PI[NMeI][NMeA][βAla]); configuration not given here) |  |  | 400 | 2.2 | 0.7 | 2.2 |  |  |  | 1100 | 800 |  |  |  | induced erythropoietin gene expression
